Results published in patent EP4790049A1, “BIPHENYL TETRAHYDROPYRROLE COMPOUND, PREPARATION METHOD THEREFOR AND USE THEREOF” (Hainan Yinrui Bio-Pharm Co., Ltd., priority 2023, dated 2025).
pIC50: −log10 of the molar value. Counter-ions that a name gives are not always drawn.

Columns and labels:
[1] = molecular target: T1, Human recombinant MAO-A (Homo sapiens, UniProt P21397); test: Human recombinant MAO-A inhibitory activity assay (Promega MAO-Glo); format: biochemical; details: human recombinant enzyme expressed in Sf 9 cells; substrate tyramine 40 µM; 15 min pre-incubation, 60 min reaction, room temperature; 10 concentrations, duplicate wells
T1 construct: Full-length human recombinant MAO-A and MAO-B proteins were both expressed in Baculovirus infected Sf 9 cells; FLAG (N); host or cells: Baculovirus-infected Sf9 insect cells
T1 sequence (P21397 1-527): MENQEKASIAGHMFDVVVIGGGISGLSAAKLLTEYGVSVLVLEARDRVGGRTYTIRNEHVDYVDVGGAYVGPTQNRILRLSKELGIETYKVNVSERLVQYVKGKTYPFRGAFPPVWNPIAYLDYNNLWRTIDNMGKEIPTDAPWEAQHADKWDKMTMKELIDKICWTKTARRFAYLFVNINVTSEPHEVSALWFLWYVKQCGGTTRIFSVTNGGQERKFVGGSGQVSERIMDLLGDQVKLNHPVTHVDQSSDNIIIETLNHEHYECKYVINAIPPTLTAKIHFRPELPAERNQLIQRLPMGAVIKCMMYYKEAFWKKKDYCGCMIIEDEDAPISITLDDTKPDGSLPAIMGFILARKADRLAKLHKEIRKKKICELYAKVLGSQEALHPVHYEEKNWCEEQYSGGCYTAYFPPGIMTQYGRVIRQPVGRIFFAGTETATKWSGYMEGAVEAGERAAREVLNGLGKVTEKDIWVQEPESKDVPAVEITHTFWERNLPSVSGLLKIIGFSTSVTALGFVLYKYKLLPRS
Protocol: (§1) Full-length human recombinant MAO-A and MAO-B proteins were both expressed in Baculovirus infected Sf 9 cells, containing an N-terminal FLAG tag, with a molecular weight of 59.8 kDa. […] A 40 µM substrate was incubated with the MAO protein at room temperature for 1 hour. The product generated by the oxidative deamination reaction between the MAO and the substrate was incubated with a fluorescent luminescent agent for 0.5 hours, and then the activity of the MAO was detected using the Promega MAO-Glo TM detection method.
(§2) Human recombinant monoamine oxidase A/B expressed in Sf 9 cells was used. During the experiment, the recombinant monoamine oxidase A/B was first dissolved in a HEPES buffer (0.8% NaCl, 0.037% KCl, 0.0135% Na2HPO4·2H2O, 0.1% Glucan, 0.5% HEPES, pH 7.0). 10 µL of the monoamine oxidase A/B solution was added to a 384-well plate, followed by the addition of the test compound (final DMSO concentration of 1%) in each well for 10 concentration gradients. […] The plate was incubated at room temperature for 15 minutes. 10 µL of a substrate solution (40 µM, with tyramine and benzylamine as substrates for MAO-A and MAO-B, respectively) was added to each well, followed by incubation at room temperature for 60 minutes. Subsequently, 20 µL of luciferin detection reagent was added to each well, mixed thoroughly, and incubated at room temperature for 20 minutes to generate a stable fluorescent signal. The fluorescent signal was read using a fluorescence microplate reader, and the values were expressed as relative light units (RLU). The experiment was designed with duplicate wells, and the average value was used to calculate the enzyme activity inhibition rate using the following formula: Inh% = (Max-Signal) / (Max-Min)∗100 [formula] • where Max is the value detected at the maximum concentration of the sample, Min is the value detected at the minimum concentration of the sample, and Signal is the value detected at the current concentration of the sample. […] Table 1. Activity Data IC50 (nM)

[2] = molecular target: T2, Human recombinant MAO-B (Homo sapiens, UniProt P27338); test: Human recombinant MAO-B inhibitory activity assay (Promega MAO-Glo); format: biochemical; details: human recombinant enzyme expressed in Sf 9 cells; substrate benzylamine 40 µM; 15 min pre-incubation, 60 min reaction, room temperature; 10 concentrations, duplicate wells
T2 construct: Full-length human recombinant MAO-A and MAO-B proteins were both expressed in Baculovirus infected Sf 9 cells; FLAG (N); host or cells: Baculovirus-infected Sf9 insect cells
T2 sequence (P27338 1-520): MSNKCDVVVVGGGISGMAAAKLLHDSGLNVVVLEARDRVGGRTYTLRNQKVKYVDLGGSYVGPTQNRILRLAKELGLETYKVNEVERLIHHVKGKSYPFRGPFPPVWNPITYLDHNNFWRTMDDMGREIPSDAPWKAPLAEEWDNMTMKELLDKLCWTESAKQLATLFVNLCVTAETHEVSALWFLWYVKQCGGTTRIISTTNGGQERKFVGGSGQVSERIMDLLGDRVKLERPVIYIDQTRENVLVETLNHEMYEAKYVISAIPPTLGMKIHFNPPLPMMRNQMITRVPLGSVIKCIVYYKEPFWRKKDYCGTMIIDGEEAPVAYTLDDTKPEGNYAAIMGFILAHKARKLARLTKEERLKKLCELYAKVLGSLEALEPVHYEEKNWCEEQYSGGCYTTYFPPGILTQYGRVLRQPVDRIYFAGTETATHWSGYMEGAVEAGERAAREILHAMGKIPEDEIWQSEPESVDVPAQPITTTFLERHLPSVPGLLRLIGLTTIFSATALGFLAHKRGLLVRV
Protocol: as §1, §2

| Structure (SMILES) | pIC50 [1] | pIC50 [2] |
| --- | --- | --- |
| NC(=O)[C@@H]1CC[C@H](c2ccc(-c3ccccc3)cc2)N1 [Compound 16, hydrochloride] | < 5.00 | 5.12 |
| Cc1cc(-c2ccc(C(F)(F)F)cc2)ccc1[C@H]1CC[C@@H](C(N)=O)N1 [Compound 19, hydrochloride] | < 5.00 | 6.05 |
| COc1cc(-c2ccc(C(F)(F)F)cc2)ccc1[C@H]1CC[C@@H](C(N)=O)N1 [Compound 20, hydrochloride] | < 5.00 | 6.00 |
| N#Cc1cc(-c2ccc(C(F)(F)F)cc2)ccc1[C@H]1CC[C@@H](C(N)=O)N1 [Compound 21, hydrochloride] | < 5.00 | 5.87 |
| NC(=O)[C@@H]1CC[C@H](c2cc(F)c(-c3ccc(C(F)(F)F)cc3)c(F)c2)N1 [Compound 22, hydrochloride] | < 5.00 | 6.36 |
| NC(=O)[C@@H]1CC[C@H](c2c(F)cc(-c3ccc(C(F)(F)F)cc3)cc2F)N1 [Compound 24, hydrochloride] | < 5.00 | 6.11 |
| CC1C[C@H](c2ccc(-c3ccc(C(F)(F)F)cc3)cc2)N[C@@H]1C(N)=O (some centres unmarked) [Compound 25, hydrochloride] | < 5.00 | 5.82 |
| CN1[C@@H](c2ccc(-c3ccc(C(F)(F)F)cc3)cc2)CC[C@H]1C(N)=O [Compound 26] | < 5.00 | 5.44 |
| CNC(=O)[C@@H]1CC[C@H](c2ccc(-c3ccc(C(F)(F)F)cc3)cc2)N1 [Compound 27, hydrochloride] | < 5.00 | 5.12 |
| CN(C)C(=O)[C@@H]1CC[C@H](c2ccc(-c3ccc(C(F)(F)F)cc3)cc2)N1 [Compound 28, hydrochloride] | < 5.00 | 6.00 |
| CCN1[C@@H](c2ccc(-c3ccc(C(F)(F)F)cc3)cc2)CC[C@H]1C(N)=O [Compound 30] | < 5.00 | 6.25 |
| O=C(O)[C@@H]1CC[C@H](c2ccc(-c3ccc(F)cc3)cc2)N1 [Compound 31, hydrochloride] | < 5.00 | 6.27 |
| COC(=O)[C@@H]1CC[C@H](c2ccc(-c3ccc(F)cc3)cc2)N1 [Compound 32, hydrochloride] | < 5.00 | 5.70 |

Next, values leading:

| pIC50 [1] | pIC50 [2] | Structure (SMILES) |
| --- | --- | --- |
| < 5.00 | 7.08 | NC(=O)[C@@H]1CC[C@H](c2ccc(-c3ccc(C(F)(F)F)cc3)cc2)N1 [Compound 1, hydrochloride] |
| < 5.00 | 5.82 | NC(=O)[C@@H]1CC[C@H](c2ccc(-c3ccc(F)cc3)cc2)N1 [Compound 2, hydrochloride] |
| < 5.00 | 6.70 | NC(=O)[C@@H]1CC[C@H](c2ccc(-c3ccc(OC(F)(F)F)cc3)cc2)N1 [Compound 3, hydrochloride] |
| < 5.00 | 6.32 | NC(=O)[C@@H]1CC[C@H](c2ccc(-c3cccc(C(F)(F)F)c3)cc2)N1 [Compound 4, hydrochloride] |
| < 5.00 | 5.52 | NC(=O)[C@@H]1CC[C@H](c2ccc(-c3cccc(F)c3)cc2)N1 [Compound 5, hydrochloride] |
| < 5.00 | 6.98 | NC(=O)[C@@H]1CC[C@@H](c2ccc(-c3ccc(C(F)(F)F)cc3)cc2)N1 [Compound 6, hydrochloride] |
| < 5.00 | 6.83 | NC(=O)[C@H]1CC[C@H](c2ccc(-c3ccc(C(F)(F)F)cc3)cc2)N1 [Compound 7, hydrochloride] |
| 5.00 | 6.25 | NC(=O)[C@H]1CC[C@@H](c2ccc(-c3ccc(C(F)(F)F)cc3)cc2)N1 [Compound 8, hydrochloride] |
| < 5.00 | 6.05 | NC(=O)[C@@H]1CC[C@H](c2ccc(-c3ccccc3C(F)(F)F)cc2)N1 [Compound 9, hydrochloride] |
| 4.08 | 6.25 | NC(=O)[C@@H]1CC[C@H](c2ccc(-c3ccc(Cl)cc3)cc2)N1 [Compound 10, hydrochloride] |
| 5.03 | 5.87 | N#Cc1ccc(-c2ccc([C@H]3CC[C@@H](C(N)=O)N3)cc2)cc1 [Compound 11, hydrochloride] |
| 5.20 | 6.10 | NC(=O)[C@@H]1CC[C@H](c2ccc(-c3ccc([N+](=O)[O-])cc3)cc2)N1 [Compound 12, hydrochloride] |
| < 5.00 | 5.81 | NC(=O)[C@@H]1CC[C@H](c2ccc(-c3ccc(C(=O)O)cc3)cc2)N1 [Compound 13, hydrochloride] |
| < 5.00 | 6.00 | NC(=O)c1ccc(-c2ccc([C@H]3CC[C@@H](C(N)=O)N3)cc2)cc1 [Compound 14, hydrochloride] |
| < 5.00 | 6.11 | COC(=O)c1ccc(-c2ccc([C@H]3CC[C@@H](C(N)=O)N3)cc2)cc1 [Compound 15, hydrochloride] |
| 5.20 | 6.15 | Cc1ccc(-c2ccc([C@H]3CC[C@@H](C(N)=O)N3)cc2)cc1 [Compound 17, (2S,5R)-5-[4-(4-methylphenyl)phenyl]-1H-pyrrole-2-carboxamide hydrochloride] |
| 5.04 | 5.45 | COc1ccc(-c2ccc([C@H]3CC[C@@H](C(N)=O)N3)cc2)cc1 [Compound 18, hydrochloride] |
| 5.01 | 5.60 | N#Cc1cc([C@H]2CC[C@@H](C(N)=O)N2)ccc1-c1ccc(C(F)(F)F)cc1 [Compound 23, hydrochloride] |
